Legend:
E. coli IH3080 (K1:O18) = assay: Well diffusion growth inhibition on LB agar plates (direct antibacterial activity); type: cell-based, Escherichia coli
Experimental: Peptides synthesized in Example 1, all carrying at least two (2) but not more than three (3) positive charges, were studied for their ability to inhibit the growth of E. coli. This was tested employing LB agar (LB Agar Lennox, Difco, BD, Sparks, Md., U.S.A) plates. The indicator organism E. coli IH3080 (K1:O18) was an encapsulated strain originally isolated from a neonate suffering from meningitis (Vaara et al. 1984) and obtained from National Public Health Institute, Helsinki, Finland.
(§1) From an overnight-grown culture of IH3080 on LB agar, a suspension of approx. 10^8 cells/ml was prepared in 0.9% NaCl. Aliquots of this suspension were then pipetted on the agar plates and the plates were gently shaken to spread the suspension evenly on the entire surface of the plate. Thereafter, the unabsorbed part of the suspension was removed by using a Pasteur pipette. After the surface had dried, small wells (diameter, 2 mm) were drilled on the plates (five wells per plate) by using a sterile sharp-edged narrow metal tube, single-use pipette tip, and vacuum suction. […] Controls included 0.9% NaCl solution without the compound to be tested. The plates were then incubated for 18 h at 37° C. whereafter the diameters of growth inhibition zones around each well were measured; the diameter of the well itself was not reduced. Finally, the diameters were converted to surface areas of growth inhibition (in square mm).

E. coli IH3080 = assay: Sensitization to rifampin: well diffusion growth inhibition on LB plates containing rifampin; type: cell-based, Escherichia coli; conditions: 4 μg of compound
Experimental: as §1

A. baumannii ATCC 19606 = assay: as above; type: cell-based, Acinetobacter baumannii; conditions: 4 μg of compound
[1] = system: Acinetobacter baumannii ATCC 19606; assay: Well diffusion growth inhibition on LB agar plates (direct antibacterial activity); type: cell-based; conditions: A. baumannii ATCC 19606
Experimental: (§2) From an overnight-grown culture of IH3080 on LB agar, a suspension of approx. 10^8 cells/ml was prepared in 0.9% NaCl. Aliquots of this suspension were then pipetted on the agar plates and the plates were gently shaken to spread the suspension evenly on the entire surface of the plate. Thereafter, the unabsorbed part of the suspension was removed by using a Pasteur pipette. After the surface had dried, small wells (diameter, 2 mm) were drilled on the plates (five wells per plate) by using a sterile sharp-edged narrow metal tube, single-use pipette tip, and vacuum suction. Samples (4 μl and 10 μl) of the peptide solution in 0.9% NaCl (at concentrations of 1 μg/ml and 0.1 μg/ml) were then pipetted to the wells and the sample fluids were allowed to absorb. Controls included 0.9% NaCl solution without the compound to be tested. The plates were then incubated for 18 h at 37° C. whereafter the diameters of growth inhibition zones around each well were measured; the diameter of the well itself was not reduced. Finally, the diameters were converted to surface areas of growth inhibition (in square mm).
(§3) Direct antibacterial activity of twelve NAB compounds against Acinetobacter baumannii ATCC 19606 and Pseudomonas aeruginosa ATCC 27853 was tested by using the susceptibility determination method described in Example 2. Five compounds (NAB7062, NAB734, NAB737, NAB739, and NAB740) had notable activity against A. baumannii. […] The antibacterial activity of NAB739 and NAB740 were as strong as or even stronger than that of polymyxin B.

[2] = system: Pseudomonas aeruginosa ATCC 27853; assay: as above; type: cell-based; conditions: Ps. aeruginosa ATCC 27853
Experimental: as §2, §3

[3] = system: Ps. aeruginosa ATCC 27853; assay: Sensitization to rifampin: well diffusion growth inhibition on LB plates containing rifampin; type: cell-based, Pseudomonas aeruginosa; conditions: 4 μg of compound

Q: Which “Antibacterial activity (growth inhibition area around a well)” value (E. coli IH3080 (K1:O18); 4 μg of compound per well) does the source give for “DA-Thr-Abu-cy[Dab-Dab-DPhe-Leu-Dab-Dab-Thr-] [NAB 7062]” here?
A: The value was 50 square millimeters.

Q: And the “Antibacterial activity (growth inhibition area around a well)” value (E. coli IH3080 (K1:O18); 10 μg of compound per well)?
A: Its value is 99 square millimeters.

Q: And the “Antibacterial activity in the presence of rifampin (growth inhibition area around a well)” value (E. coli IH3080; rifampin 0 μg/ml)?
A: Its value is 50 square millimeters.

Q: And the “Antibacterial activity in the presence of rifampin (growth inhibition area around a well)” value (E. coli IH3080; rifampin 0.1 μg/ml)?
A: The value was 104 square millimeters.

Q: What about the “Antibacterial activity in the presence of rifampin (growth inhibition area around a well)” value (E. coli IH3080; rifampin 1.0 μg/ml) of the same substance?
A: Its value is 104 square millimeters.

Q: What about the “Antibacterial activity in the presence of rifampin (growth inhibition area around a well)” value (A. baumannii ATCC 19606; rifampin 0 μg/ml) of the same substance?
A: The value was 13 square millimeters.

Q: What about the “Antibacterial activity in the presence of rifampin (growth inhibition area around a well)” value (A. baumannii ATCC 19606; rifampin 0.1 μg/ml) of the same substance?
A: Its value is 50 square millimeters.

Q: And the “Antibacterial activity in the presence of rifampin (growth inhibition area around a well)” value (A. baumannii ATCC 19606; rifampin 0.3 μg/ml)?
A: The value was 95 square millimeters.

Q: And the “Antibacterial activity (growth inhibition area around a well)” value ([1]; 4 μg per well)?
A: Its value is 13 square millimeters.

Q: What about the “Antibacterial activity (growth inhibition area around a well)” value ([1]; 10 μg per well) of the same substance?
A: Its value is 38 square millimeters.

Q: And the “Antibacterial activity (growth inhibition area around a well)” value ([2]; 4 μg per well)?
A: Its value is 0 square millimeters.

Q: And the “Antibacterial activity (growth inhibition area around a well)” value ([2]; 10 μg per well)?
A: The value was 0 square millimeters.

Q: What about the “Antibacterial activity in the presence of rifampin (growth inhibition area around a well)” value ([3]; rifampin 0 μg/ml) of the same substance?
A: Its value is 0 square millimeters.

Q: And the “Antibacterial activity in the presence of rifampin (growth inhibition area around a well)” value ([3]; rifampin 0.1 μg/ml)?
A: The value was 0 square millimeters.

Q: And the “Antibacterial activity in the presence of rifampin (growth inhibition area around a well)” value ([3]; rifampin 0.3 μg/ml)?
A: Its value is 7 square millimeters.

Q: Which results are given for “DA-Thr-DSer-cy[Dab-Dab-DPhe-Leu-Dab-Dab-Thr-] [NAB 740]”?
A: Antibacterial activity (growth inhibition area around a well) (E. coli IH3080 (K1:O18); 4 μg of compound per well): 95 square millimeters; Antibacterial activity (growth inhibition area around a well) (E. coli IH3080 (K1:O18); 10 μg of compound per well): 133 square millimeters; Antibacterial activity in the presence of rifampin (growth inhibition area around a well) (E. coli IH3080; rifampin 0 μg/ml): 95 square millimeters; Antibacterial activity in the presence of rifampin (growth inhibition area around a well) (E. coli IH3080; rifampin 0.1 μg/ml): 95 square millimeters; Antibacterial activity in the presence of rifampin (growth inhibition area around a well) (E. coli IH3080; rifampin 1.0 μg/ml): 95 square millimeters; Antibacterial activity in the presence of rifampin (growth inhibition area around a well) (A. baumannii ATCC 19606; rifampin 0 μg/ml): 133 square millimeters; Antibacterial activity in the presence of rifampin (growth inhibition area around a well) (A. baumannii ATCC 19606; rifampin 0.1 μg/ml): 154 square millimeters; Antibacterial activity in the presence of rifampin (growth inhibition area around a well) (A. baumannii ATCC 19606; rifampin 0.3 μg/ml): 154 square millimeters; Antibacterial activity (growth inhibition area around a well) ([1]; 4 μg per well): 133 square millimeters; Antibacterial activity (growth inhibition area around a well) ([1]; 10 μg per well): 201 square millimeters; Antibacterial activity (growth inhibition area around a well) ([2]; 4 μg per well): 64 square millimeters; Antibacterial activity (growth inhibition area around a well) ([2]; 10 μg per well): 133 square millimeters; Antibacterial activity in the presence of rifampin (growth inhibition area around a well) ([3]; rifampin 0 μg/ml): 64 square millimeters; Antibacterial activity in the presence of rifampin (growth inhibition area around a well) ([3]; rifampin 0.1 μg/ml): 64 square millimeters; Antibacterial activity in the presence of rifampin (growth inhibition area around a well) ([3]; rifampin 0.3 μg/ml): 64 square millimeters

Q: What does the source list for “DA-cy[Dab-Dab-DPhe-Leu-Dab-Dab-Thr-] [NAB 736]”?
A: Antibacterial activity (growth inhibition area around a well) (E. coli IH3080 (K1:O18); 4 μg of compound per well): 0 square millimeters; Antibacterial activity (growth inhibition area around a well) (E. coli IH3080 (K1:O18); 10 μg of compound per well): 0 square millimeters; Antibacterial activity in the presence of rifampin (growth inhibition area around a well) (E. coli IH3080; rifampin 0 μg/ml): 0 square millimeters; Antibacterial activity in the presence of rifampin (growth inhibition area around a well) (E. coli IH3080; rifampin 0.1 μg/ml): 113 square millimeters; Antibacterial activity in the presence of rifampin (growth inhibition area around a well) (E. coli IH3080; rifampin 1.0 μg/ml): 133 square millimeters; Antibacterial activity in the presence of rifampin (growth inhibition area around a well) (A. baumannii ATCC 19606; rifampin 0 μg/ml): 0 square millimeters; Antibacterial activity in the presence of rifampin (growth inhibition area around a well) (A. baumannii ATCC 19606; rifampin 0.1 μg/ml): 95 square millimeters; Antibacterial activity in the presence of rifampin (growth inhibition area around a well) (A. baumannii ATCC 19606; rifampin 0.3 μg/ml): 154 square millimeters; Antibacterial activity (growth inhibition area around a well) ([1]; 4 μg per well): 0 square millimeters; Antibacterial activity (growth inhibition area around a well) ([1]; 10 μg per well): 0 square millimeters; Antibacterial activity (growth inhibition area around a well) ([2]; 4 μg per well): 38 square millimeters; Antibacterial activity (growth inhibition area around a well) ([2]; 10 μg per well): 79 square millimeters; Antibacterial activity in the presence of rifampin (growth inhibition area around a well) ([3]; rifampin 0 μg/ml): 38 square millimeters; Antibacterial activity in the presence of rifampin (growth inhibition area around a well) ([3]; rifampin 0.1 μg/ml): 38 square millimeters; Antibacterial activity in the presence of rifampin (growth inhibition area around a well) ([3]; rifampin 0.3 μg/ml): 38 square millimeters

Q: How did the “Antibacterial activity (growth inhibition area around a well)” value (E. coli IH3080 (K1:O18); 4 μg of compound per well) turn out when “OA-Thr-Abu-cy[Dab-Dab-DLeu-Leu-Dab-Dab-Thr-] [NAB 718]” was run?
A: Its value is 0 square millimeters.

Q: What about the “Antibacterial activity (growth inhibition area around a well)” value (E. coli IH3080 (K1:O18); 10 μg of compound per well) of the same substance?
A: The value was 0 square millimeters.

Q: What about the “Antibacterial activity in the presence of rifampin (growth inhibition area around a well)” value (E. coli IH3080; rifampin 0 μg/ml) of the same substance?
A: Its value is 0 square millimeters.

Q: What about the “Antibacterial activity in the presence of rifampin (growth inhibition area around a well)” value (E. coli IH3080; rifampin 0.1 μg/ml) of the same substance?
A: Its value is 13 square millimeters.

Q: And the “Antibacterial activity in the presence of rifampin (growth inhibition area around a well)” value (E. coli IH3080; rifampin 1.0 μg/ml)?
A: The value was 133 square millimeters.

Q: And the “Antibacterial activity in the presence of rifampin (growth inhibition area around a well)” value (A. baumannii ATCC 19606; rifampin 0 μg/ml)?
A: The value was 0 square millimeters.

Q: And the “Antibacterial activity in the presence of rifampin (growth inhibition area around a well)” value (A. baumannii ATCC 19606; rifampin 0.1 μg/ml)?
A: Its value is 0 square millimeters.

Q: What about the “Antibacterial activity in the presence of rifampin (growth inhibition area around a well)” value (A. baumannii ATCC 19606; rifampin 0.3 μg/ml) of the same substance?
A: Its value is 38 square millimeters.

Q: And the “Antibacterial activity (growth inhibition area around a well)” value ([1]; 4 μg per well)?
A: Its value is 0 square millimeters.

Q: And the “Antibacterial activity (growth inhibition area around a well)” value ([1]; 10 μg per well)?
A: Its value is 0 square millimeters.

Q: And the “Antibacterial activity (growth inhibition area around a well)” value ([2]; 4 μg per well)?
A: Its value is 0 square millimeters.

Q: What about the “Antibacterial activity (growth inhibition area around a well)” value ([2]; 10 μg per well) of the same substance?
A: Its value is 0 square millimeters.

Q: What about the “Antibacterial activity in the presence of rifampin (growth inhibition area around a well)” value ([3]; rifampin 0 μg/ml) of the same substance?
A: Its value is 0 square millimeters.

Q: What about the “Antibacterial activity in the presence of rifampin (growth inhibition area around a well)” value ([3]; rifampin 0.1 μg/ml) of the same substance?
A: The value was 0 square millimeters.

Q: And the “Antibacterial activity in the presence of rifampin (growth inhibition area around a well)” value ([3]; rifampin 0.3 μg/ml)?
A: The value was 0 square millimeters.

Q: What does the source list for “OA-Thr-Abu-cy[Dab-Dab-DPhe-Leu-Dab-Dab-Leu-] [NAB 719]”?
A: Antibacterial activity (growth inhibition area around a well) (E. coli IH3080 (K1:O18); 4 μg of compound per well): 7 square millimeters; Antibacterial activity (growth inhibition area around a well) (E. coli IH3080 (K1:O18); 10 μg of compound per well): 50 square millimeters; Antibacterial activity in the presence of rifampin (growth inhibition area around a well) (E. coli IH3080; rifampin 0 μg/ml): 7 square millimeters; Antibacterial activity in the presence of rifampin (growth inhibition area around a well) (E. coli IH3080; rifampin 0.1 μg/ml): 79 square millimeters; Antibacterial activity in the presence of rifampin (growth inhibition area around a well) (E. coli IH3080; rifampin 1.0 μg/ml): 95 square millimeters; Antibacterial activity in the presence of rifampin (growth inhibition area around a well) (A. baumannii ATCC 19606; rifampin 0 μg/ml): 0 square millimeters; Antibacterial activity in the presence of rifampin (growth inhibition area around a well) (A. baumannii ATCC 19606; rifampin 0.1 μg/ml): 154 square millimeters; Antibacterial activity in the presence of rifampin (growth inhibition area around a well) (A. baumannii ATCC 19606; rifampin 0.3 μg/ml): 133 square millimeters; Antibacterial activity (growth inhibition area around a well) ([1]; 4 μg per well): 0 square millimeters; Antibacterial activity (growth inhibition area around a well) ([1]; 10 μg per well): 0 square millimeters; Antibacterial activity (growth inhibition area around a well) ([2]; 4 μg per well): 0 square millimeters; Antibacterial activity (growth inhibition area around a well) ([2]; 10 μg per well): 0 square millimeters; Antibacterial activity in the presence of rifampin (growth inhibition area around a well) ([3]; rifampin 0 μg/ml): 0 square millimeters; Antibacterial activity in the presence of rifampin (growth inhibition area around a well) ([3]; rifampin 0.1 μg/ml): 0 square millimeters; Antibacterial activity in the presence of rifampin (growth inhibition area around a well) ([3]; rifampin 0.3 μg/ml): 7 square millimeters

Reference: patent US9067974B2, “Polymyxin derivatives and uses thereof” (priority 2006, dated 2015)
